Source: US11951094B2, “TLR2 modulator compounds, pharmaceutical compositions and uses thereof” (Axial Therapeutics, Inc., priority 2020, dated 2024)
Counter-ions that a name gives are not always drawn.

Biological target: TLR2 (Homo sapiens, UniProt O60603)
Assay: TLR2 agonist screening assay, HEK-Blue TLR2 reporter cell line (NF-kB-driven SEAP, absorbance at 600 nm)
Format: cell-based
Parameters: host or cells: HEK-293 (HEK-Blue TLR2 reporter cell line)
Conditions: HEK-Blue TLR2 reporter cells, agonist mode; average of all runs (Table 3)
Text: TLRs are a class of cell-surface receptors expressed on many different cell types that recognize conserved structural motifs present on pathogen-derived molecules. TLR2 recognizes bacteria-derived lipopeptides. […] Provided herein is an assay to identify and characterize the binding affinities of novel TLR2 agonists.
The in vitro TLR2 assay consists of a cell line that responds to TLR2 engagement by producing a factor that elicits a color change in the culture media and can be readily measured by various colorimetric detection methods. This assay enables the identification of existing and novel compounds that engage TLR2 and, by virtue of compound dilution, to approximate the binding affinity of these compounds for eliciting a TLR2 signal.
The TLR2 screening assay was developed from the HEK-Blue TLR2 reporter cell line that is commercially available from Invivogen (San Diego, CA). The reporter cell line consists of HEK-293 embryonic kidney cells that have been engineered to express TLR2 and with an NF-kB promoter driving expression of Secreted Alkaline Phosphatase (SEAP). Upon engagement of TLR2, downstream signaling results in activation of NF-kB pathway activation and secretion of SEAR In the presence of the detection reagent in the tissue culture media, SEAP mediates a color change from clear to indigo that is readily assessed by measuring absorbance at 600 nm.
HEK-Blue TLR2 reporter cells are cultured according to manufacturer's specifications until a confluence of 70-90%, at which point the cells are trypsinized, counted, and plated into 96-well plates at approximately 40,000 cells per well. Cells are cultured overnight and the TLR2 assay is performed 16-24 hours post-plating into 96 well plates.
Compounds are diluted from stocks dissolved in DMSO and a 1% DMSO final concentration is maintained in all testing wells.
The assay consists of removing the cell culture media after cells have been cultured overnight and replacing the media with HEK-Blue Detection media with TLR2 agonists at indicated dilution schemes. The Detection media contains a chemical substrate that turns from clear to indigo when acted upon by SEAP. The HEK-Blue cells are then cultured overnight in Detection media with diluted compounds. After overnight culture with agonists, each well of the plate is assayed in a plate reader at 600 nanometer absorbance.
• (1) HEK-Blue TLR2 cells are diluted in complete DME culture medium and plated into 96-well plates at 40,000 cells per well and cultured overnight. • (2) After 16-24 hours in culture, the media is removed and replaced with 200 microliters per well of HEK-Blue Detection media. • (3) TLR2 agonists are diluted 100-fold from DMSO stocks into each well, yielding a final DMSO concentration of 1% in all wells. • (3) Treated cells are cultured overnight and the following day are assayed in plate reader for Absorbance at 600 nanometer.
Following assay measurements utilizing either HEK-Blue detection or cytokine release, all data is analyzed with the GraphPad Prism8 statistical package to determine EC50, binding and activity metrics for the TLR2 modulators.
Data is generated using protocol described in Example 44.

TLR2, sequence (O60603 21-784): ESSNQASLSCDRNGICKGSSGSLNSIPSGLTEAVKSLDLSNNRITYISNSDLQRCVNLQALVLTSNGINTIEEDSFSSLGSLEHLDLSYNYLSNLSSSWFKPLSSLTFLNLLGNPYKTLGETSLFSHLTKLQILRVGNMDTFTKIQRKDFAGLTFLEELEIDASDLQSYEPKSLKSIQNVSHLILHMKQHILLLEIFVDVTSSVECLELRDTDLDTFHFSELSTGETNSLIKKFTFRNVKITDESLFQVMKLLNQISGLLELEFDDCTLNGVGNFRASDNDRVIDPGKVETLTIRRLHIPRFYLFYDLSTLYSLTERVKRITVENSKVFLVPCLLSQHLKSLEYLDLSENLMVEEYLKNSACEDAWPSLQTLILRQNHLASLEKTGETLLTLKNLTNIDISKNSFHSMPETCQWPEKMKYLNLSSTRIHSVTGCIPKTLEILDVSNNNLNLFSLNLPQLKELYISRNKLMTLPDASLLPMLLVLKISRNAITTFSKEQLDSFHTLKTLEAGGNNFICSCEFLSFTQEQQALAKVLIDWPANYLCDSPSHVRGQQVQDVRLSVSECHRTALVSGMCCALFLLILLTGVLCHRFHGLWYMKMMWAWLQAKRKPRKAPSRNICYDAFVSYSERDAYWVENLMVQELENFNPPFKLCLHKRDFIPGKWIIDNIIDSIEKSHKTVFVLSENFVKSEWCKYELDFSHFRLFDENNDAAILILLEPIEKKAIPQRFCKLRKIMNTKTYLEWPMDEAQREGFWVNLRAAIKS

`O=C(NC1CCCCCCC1)[C@H]1CCN(C(=O)c2ccc(C(=O)N3C[C@@H](C(=O)N[C@H]4C[C@@H]4c4ccccc4)[C@H](C(=O)N[C@H]4C[C@@H]4c4ccccc4)C3)cc2)C1` [Compound 003] and `CCCCCN(CCCCC)C(=O)[C@H]1CCN(C(=O)c2ccc(C(=O)N3C[C@@H](C(=O)N[C@H]4C[C@@H]4c4ccccc4)[C@H](C(=O)N[C@H]4C[C@@H]4c4ccccc4)C3)cc2)C1` [Compound 022] cannot be ordered by EC50: > 1000 nM for the first, > 1000 nM for the second.

First: CCCCCCCCCCCCCCNC(=O)[C@H]1CCN(C(=O)c2ccc(C(=O)N3C[C@@H](C(=O)N[C@H]4C[C@@H]4c4ccccc4)[C@H](C(=O)N[C@H]4C[C@@H]4c4ccccc4)C3)cc2)C1 [Compound 004]
Second: CCCCCCCCCCCCCCNC(=O)C1CCN(C(=O)c2ccc(C(=O)N3C[C@@H](C(=O)N[C@H]4C[C@@H]4c4ccccc4)[C@H](C(=O)N[C@H]4C[C@@H]4c4ccccc4)C3)cc2)CC1 [Compound 010]
The EC50 of the first is lower: 0.1 to 50 nM for the first, > 1000 nM for the second.

First: CCCCCCCCCCCCCCNC(=O)C1CN(C(=O)c2ccc(C(=O)N3C[C@@H](C(=O)N[C@H]4C[C@@H]4c4ccccc4)[C@H](C(=O)N[C@H]4C[C@@H]4c4ccccc4)C3)cc2)CCO1 (stereo partly drawn) [Compound 006]
Second: CCCCCCCCCCCCCCNC(=O)C1CN(C(=O)c2ccc(C(=O)N3C[C@@H](C(=O)N[C@H]4C[C@@H]4c4ccccc4)[C@H](C(=O)N[C@H]4C[C@@H]4c4ccccc4)C3)cc2)CCN1C (stereo partly drawn) [Compound 023, (3S,4S)-1-(4-(4-methyl-3-(tetradecylcarbamoyl)piperazine-1-carbonyl)benzoyl)-N3,N4-bis((1S,2R)-2-phenylcyclopropyl)pyrrolidine-3,4-dicarboxamide formate]
The EC50 of the first is higher: 351 to 1000 nM for the first, 0.1 to 50 nM for the second.

First: CCCCCCN(CCCCCC)C(=O)[C@H]1CCN(C(=O)c2ccc(C(=O)N3C[C@@H](C(=O)N[C@H]4C[C@@H]4c4ccccc4)[C@H](C(=O)N[C@H]4C[C@@H]4c4ccccc4)C3)cc2)C1 [Compound 009]
Second: CCCCCCCCN1CCN(C(=O)c2ccc(C(=O)N3C[C@@H](C(=O)N[C@H]4C[C@@H]4c4ccccc4)[C@H](C(=O)N[C@H]4C[C@@H]4c4ccccc4)C3)cc2)CC1C(=O)NCCCCCC (stereo partly drawn) [Compound 018, (3S,4S)-1-(4-(3-(hexylcarbamoyl)-4-octylpiperazine-1-carbonyl)benzoyl)-N3,N4-bis((1S,2R)-2-phenylcyclopropyl)pyrrolidine-3,4-dicarboxamide formate]
The EC50 of the first is higher: > 1000 nM for the first, 351 to 1000 nM for the second.

`CCCCCCCCCCCCCCNC(=O)CC(C)(C)NC(=O)c1ccc(C(=O)N2C[C@@H](C(=O)N[C@H]3C[C@@H]3c3ccccc3)[C@H](C(=O)N[C@H]3C[C@@H]3c3ccccc3)C2)cc1` [Compound 011] and `CCCCCCCCCCCCCCC(=O)NC(C)(C)CNC(=O)c1ccc(C(=O)N2C[C@@H](C(=O)N[C@H]3C[C@@H]3c3ccccc3)[C@H](C(=O)N[C@H]3C[C@@H]3c3ccccc3)C2)cc1` [Compound 012] cannot be ordered by EC50: > 1000 nM for the first, > 1000 nM for the second.

`CCCCCCNC(=O)CC[C@H](NC(=O)c1ccc(C(=O)N2C[C@@H](C(=O)N[C@H]3C[C@@H]3c3ccccc3)[C@H](C(=O)N[C@H]3C[C@@H]3c3ccccc3)C2)cc1)C(=O)NCCCCCC` [Compound 013] and `CCCCCCNC(=O)[C@H](CCNC(=O)CCCCCC)NC(=O)c1ccc(C(=O)N2C[C@@H](C(=O)N[C@H]3C[C@@H]3c3ccccc3)[C@H](C(=O)N[C@H]3C[C@@H]3c3ccccc3)C2)cc1` [Compound 021] cannot be ordered by EC50: > 1000 nM for the first, > 1000 nM for the second.

`CCCCCCNC(=O)C[C@H](NC(=O)c1ccc(C(=O)N2C[C@@H](C(=O)N[C@H]3C[C@@H]3c3ccccc3)[C@H](C(=O)N[C@H]3C[C@@H]3c3ccccc3)C2)cc1)C(=O)NCCCCCC` [Compound 014] and `CCCCCCNC(=O)[C@H](CNC(=O)CCCCCC)NC(=O)c1ccc(C(=O)N2C[C@@H](C(=O)N[C@H]3C[C@@H]3c3ccccc3)[C@H](C(=O)N[C@H]3C[C@@H]3c3ccccc3)C2)cc1` [Compound 015] cannot be ordered by EC50: > 1000 nM for the first, > 1000 nM for the second.

`CCCCCCCOC1CN(C(=O)c2ccc(C(=O)N3C[C@@H](C(=O)N[C@H]4C[C@@H]4c4ccccc4)[C@H](C(=O)N[C@H]4C[C@@H]4c4ccccc4)C3)cc2)C[C@H]1OCCCCCCC` (stereo partly drawn) [Compound 016] and `CCCCCCCCOC1CN(C(=O)c2ccc(C(=O)N3C[C@@H](C(=O)N[C@H]4C[C@@H]4c4ccccc4)[C@H](C(=O)N[C@H]4C[C@@H]4c4ccccc4)C3)cc2)C[C@H]1OCCCCCCCC` (stereo partly drawn) [Compound 020] cannot be ordered by EC50: > 1000 nM for the first, > 1000 nM for the second.

Compared with `CCCCCCNC(=O)[C@H](CCNC(=O)c1ccc(C(=O)N2C[C@@H](C(=O)N[C@H]3C[C@@H]3c3ccccc3)[C@H](C(=O)N[C@H]3C[C@@H]3c3ccccc3)C2)cc1)NC(=O)CCCCCC` [Compound 017], `CCCCCCNC(=O)[C@H]1CN(C(=O)c2ccc(C(=O)N3C[C@@H](C(=O)N[C@H]4C[C@@H]4c4ccccc4)[C@H](C(=O)N[C@H]4C[C@@H]4c4ccccc4)C3)cc2)C[C@@H]1C(=O)NCCCCCC` [Compound 029] is lower in EC50: > 1000 nM for the first, 51 to 350 nM for the second. The second is the more potent here.

First: CCCCCCCC(=O)N1CCN(C(=O)c2ccc(C(=O)N3C[C@@H](C(=O)N[C@H]4C[C@@H]4c4ccccc4)[C@H](C(=O)N[C@H]4C[C@@H]4c4ccccc4)C3)cc2)CC1C(=O)NCCCCCC (stereo partly drawn) [Compound 019, (3S,4S)-1-(4-(3-(hexylcarbamoyl)-4-octanoylpiperazine-1-carbonyl)benzoyl)-N3,N4-bis((1S,2R)-2-phenylcyclopropyl)pyrrolidine-3,4-dicarboxamide]
Second: CCCCCCCC(=O)N1CCN(C(=O)c2ccc(C(=O)N3C[C@@H](C(=O)N[C@H]4C[C@@H]4c4ccccc4)[C@H](C(=O)N[C@H]4C[C@@H]4c4ccccc4)C3)cc2)C[C@H]1C(=O)NCCCCCC [Compound 030]
The EC50 of the first is lower: 0.1 to 50 nM for the first, > 1000 nM for the second. The first is the more potent here.

Compared with `CCCCCCCCCCCCCCNC(=O)[C@@H]1CN(C(=O)c2ccc(C(=O)N3C[C@@H](C(=O)N[C@H]4C[C@@H]4c4ccccc4)[C@H](C(=O)N[C@H]4C[C@@H]4c4ccccc4)C3)cc2)C[C@H]1NC(C)=O` [Compound 028, (3S,4S)-1-(4-((3S,4R)-3-acetamido-4-(tetradecylcarbamoyl)pyrrolidine-1-carbonyl)benzoyl)-N3,N4-bis((1S,2R)-2-phenylcyclopropyl)pyrrolidine-3,4-dicarboxamide], `CCCCCCCCN1CCN(C(=O)c2ccc(C(=O)N3C[C@@H](C(=O)N[C@H]4C[C@@H]4c4ccccc4)[C@H](C(=O)N[C@H]4C[C@@H]4c4ccccc4)C3)cc2)C[C@H]1C(=O)NCCCCCC` [Compound 031] is higher in EC50: 51 to 350 nM for the first, > 1000 nM for the second. The first is the more potent here.

Same assay, conditions: HEK-Blue TLR2 reporter cells, agonist mode; average of all runs (Table 4)

With `CCCCCCCCCCCCNC(=O)N[C@H]1CN(C(c2ccc(C(=O)N3C[C@@H](C(=O)N[C@H]4C[C@@H]4c4ccccc4)[C@H](C(=O)N[C@H]4C[C@@H]4c4ccccc4)C3)cc2)C(F)(F)F)C[C@@H]1OC` (single isomer, unassigned) [Compound 232, (3S,4S)-1-(4-((R*)-1-((3S,4S)-3-(3-dodecylureido)-4-methoxypyrrolidin-1-yl)-2,2,2-trifluoroethyl)benzoyl)-N3,N4-bis((1S,2R)-2-phenylcyclopropyl)pyrrolidine-3,4-dicarboxamide] the EC50 was 0.1 to 50 nM.
Work on `CCCCCCCCCCCCNC(=O)N[C@H]1CN(C(c2ccc(C(=O)N3C[C@@H](C(=O)N[C@H]4C[C@@H]4c4ccccc4)[C@H](C(=O)N[C@H]4C[C@@H]4c4ccccc4)C3)cc2)C(F)(F)F)C[C@@H]1OC` (single isomer, unassigned) [Compound 233, (3S,4S)-1-(4-((S*)-1-((3S,4S)-3-(3-dodecylureido)-4-methoxypyrrolidin-1-yl)-2,2,2-trifluoroethyl)benzoyl)-N3,N4-bis((1S,2R)-2-phenylcyclopropyl)pyrrolidine-3,4-dicarboxamide] yielded an EC50 of 0.1 to 50 nM.
